The results in this text go back to patent US10975063B2, “Compound, and production method thereof, and methods of treatment using the compound” (ABIVAX, priority 2009, dated 2021).

The test concerns LMNA aberrant splicing (MutLMNA-luc cell line). Briefly: Luciferase assay for repression of LMNA aberrant splicing in stable 293 MutLMNA-luc cell line (293FLP LMNA LUC cells #8). The settings on record: 48 hours, compared to control untreated MutLMNA-luc cell line, read-out: Increase of luciferase activity. In kind it is cell-based. The source says:
Advantage has been taken of the luciferase system. The luciferase assay is an extremely sensitive and rapid assay. Linear results are seen over at least eight orders of magnitude of enzyme concentration. Moreover, the luciferase assay is well suited for high-throughput applications. To conduct a Mid-throughput screening (MTS) for compounds repressing LMNA aberrant splicing, we have constructed a plasmid in which exon 11, intron 11 and part of exon 12 of LMNA gene were fused with luciferase cDNA (FIG. 2). Both wild type (WtLMNA-luc)(SEQ ID NO: 1) and mutant (MutLMNA-luc)(SEQ ID NO: 2) substrate harbouring exon 11 mutation have been constructed. In these constructs we have generated a single initiation codon in exon 11 such as correct splicing will lead to luciferase expression, while aberrant splicing will skip the initiation codon and thereby prevent luciferase expression. After transfection in HeLa cells, Luciferase assays (FIG. 2B) and RT-PCR (FIG. 2C) indicate that WtLMNA-luc produces predominantly wild type splicing and large amount of luciferase activity, whereas MutLMNA-luc recapitulate the aberrant splicing profile with reduced luciferase expression (FIGS. 2 B and C, compare Wt and Mut). In order to use this system in MTS, we have generated a stable 293 cell lines containing a single integrated copy of luciferase reporter containing LMNA mutation (MutLMNA-luc cell line) using the flp system from INVITROGEN. This system allows us to perform a MTS for compounds able to enhance luciferase activity.
LMNA sequences (1278 bp of exon 11, intron 11 and 46 bp of […]) were PCR-amplified from either control or patient's cells genomic DNA with specific primer PCR fragments were purified with Concert Rapid PCR purification system (Invitrogen) and subcloned at the BamHI and EcoRI restriction sites of the pSppβm3 S1 plasmid containing the βGlobin cassette (Labourier et al., 1999—Recognition of exonic splicing enhancer sequences by the Drosophila splicing repressor RSF1. Nucleic Acids Res. 27, 2377-2386) to give the βGlo3S1LMNAwt and βGlo3S1LMNAmut constructs. The chimeric (3Glo-LMNA sequences were then inserted into the pcDNA3.1D/V5-His-TOPO vector (Invitrogen) to be used in transfection and in vitro splicing experiments. A single initiation codon ATG was kept in exon 11 of LMNA and LMNA sequences described above were fused at their 3′ end to Fyrefly luciferase cDNA (LMNAlucWT) in order that removal of intron 11 generates a transcript that encode a fusion protein harbouring luciferase activity, whereas usage of the cryptic splice site of mutated exon 11 (LMNAlucMut) will remove the initiation codon preventing luciferase expression. Both sequences were cloned in pcDNA3 Flp-In vector (Invitrogen).
A stable 293 cell line containing a single copy of LMNAlucMut minigene was obtained using the Flp-In system from (Invitrogen) according to manufacture procedure. Several clones were obtained and only one clone was used to screen the whole chemical library (293FLP LMNA LUC cells #8).
In a 96 Well Plate sterile, V-shape one put […] of drug compounds at 50 mM and then add 49.5 μl of 10% DMSO.
One pipets […] of drug at 500 μM and adds 200 μL of DMEM+Hygromycin B. At this stage the concentration of drug compound is 10 μM. One shares out 100 μl in a 96 Well Microplate sterile, flat bottom (further called luciferase plate) and 50 μl in other one (further called toxicity plate).
One washes 293FLP LMNA LUC cells once with D-PBS then adds 1 ml trypsin EDTA. Incubation at 37° C. for 2-3 minutes is proceeded. Then one adds 9 ml DMEM (with 10% FCS, P/S).
Cell concentration is brought at 10^5 cells per ml with DMEM+Hygromycin B to have 10^4 cells per 100 μl.
100 μl of suspension cells is added (at 10^4 cells per 100 μl) so final concentration of compounds is […].
Medium of the wells is gently removed then washed once by adding slowly 150 μl of D-PBS 1×. D-PBS is removed. 40 μl of PLB 1× is added and incubated at RT for 30 minutes. […]
`Cc1ccnc(Nc2ccc3cc(Cl)ccc3n2)c1` [Compound 25, 6-chloro-N-(4-methylpyridin-2-yl)quinolin-2-amine]: the fold induction at 5 µM was found to be 3.49.
For `Cc1cccc(Nc2cnc3ccccc3c2)n1` [Compound 105, N-(6-methylpyridin-2-yl)quinolin-3-amine], the fold induction at 5 µM was determined as 3.25.
As for `O=[N+]([O-])c1cccnc1Nc1ccc2ccccc2n1` [Compound 28, N-(3-nitropyridin-2-yl)quinolin-2-amine], the figure is 2.99.
`COC(=O)c1ccc(Nc2ccc3ccccc3n2)nc1` [Compound 59, methyl 6-(quinolin-2-ylamino)nicotinate]: the fold induction at 5 µM stood at 2.49.
Consider `COc1cccnc1Nc1cnc2ccccc2c1` [Compound 10, (3-Methoxy-pyridin-2-yl)-quinolin-3-yl-amine], for which the fold induction at 5 µM amounted to 2.01.
Turning to `c1ccc(Nc2cnc3ccccc3c2)nc1` [Compound 9, Pyridin-2-yl-quinolin-3-yl-amine], the fold induction at 5 µM turned out to be 2.47.
As to `FC(F)(F)Oc1cccc(Nc2ccc3ccccc3n2)c1` [Compound 83, N-[3-(trifluoromethoxy)phenyl]quinolin-2-amine], the fold induction at 5 µM is 2.74.
For `Cc1ccnc(Nc2ccc3c(N(C)C)ccnc3c2)c1` [Compound 147, 4-N,4-N-dimethyl-7-N-(4-methylpyridin-2-yl)quinoline-4,7-diamine] the value was 2.94; for `COc1ccnc2cc(Nc3ccccn3)ccc12` [Compound 145, 4-methoxy-N-(pyridin-2-yl)quinolin-7-amine], 3.87; for `COc1cccnc1Nc1ccc2ncccc2c1` [Compound 108, N-(3-methoxypyridin-2-yl)quinolin-6-amine], 4.57.
For `c1ccc2nc(Nc3ccncc3)ccc2c1` [Compound 120, N-(pyridin-4-yl)quinolin-2-amine] the value was 2.38; for `c1ccc2nc(Nc3cnccn3)ccc2c1` [Compound 113, N-(pyrazin-2-yl)quinolin-2-amine], 2.28.
Consider `c1ccc(Nc2ccc3ccccc3n2)nc1` [Compound 4, Pyridin-2-yl-quinolin-2-yl-amine], for which the fold induction at 5 µM came out at 4.43.
On to `FC(F)(F)c1cccc(Nc2ccc3ccccc3n2)n1` [Compound 42, N-(6-(trifluoromethyl)pyridin-2-yl)quinolin-2-amine], for which the fold induction at 5 µM stood at 3.87.
Turning to `FC(F)(F)Oc1ccc(Nc2ccc3ccccc3n2)cc1` [Compound 8, Quinolin-2-yl-(4-trifluoromethoxy-phenyl)-amine], the fold induction at 5 µM was found to be 3.35.
Turning to `COC(=O)c1ccc(Nc2nc3ccccc3cc2C)nc1` [Compound 61, methyl 6-[(3-methylquinolin-2-yl)amino]pyridine-3-carboxylate], the fold induction at 5 µM was 2.04.
Take `FC(F)(F)c1ccc(Nc2ccc3ccccc3n2)nc1` [Compound 34, N-(5-(trifluoromethyl)pyridin-2-yl)quinolin-2-amine]: the fold induction at 5 µM came to 4.18.
As to `c1cnc(Nc2ccc3ccccc3n2)nc1` [Compound 128, N-(pyrimidin-2-yl)quinolin-2-amine], the fold induction at 5 µM was determined as 3.08.
For `Cc1cccc(Nc2cnc3ccccc3n2)n1` [Compound 138, N-(6-methylpyridin-2-yl)quinoxalin-2-amine] the value was 8.22; for `Cc1ccc(Nc2cnc3ccccc3c2)nc1` [Compound 13, (5-Methyl-pyridin-2-yl)-quinolin-3-yl-amine], 3.46; for `N#Cc1ccnc(Nc2ccc3ccccc3n2)c1` [Compound 33, 2-(quinolin-2-ylamino)isonicotinonitrile], 2.14.
`c1ccc(Nc2cnc3ccccc3n2)nc1` [Compound 135, N-(pyridin-2-yl)quinoxalin-2-amine]: the fold induction at 5 µM amounted to 4.58.
Take `Cc1ccc(Nc2ccc3ccccc3n2)nc1` [Compound 32, N-(5-methylpyridin-2-yl)quinolin-2-amine]: the fold induction at 5 µM came out at 2.96.
As to `O=C(O)c1ccnc(Nc2ccc3cccc(Cl)c3n2)c1` [Compound 5, 2-(8-Chloro-quinolin-2-ylamino)-isonicotinic acid], the fold induction at 5 µM stood at 2.02.
For `Cc1cccnc1Nc1ccc2cccc(Cl)c2n1` [Compound 35, 8-chloro-N-(3-methylpyridin-2-yl)quinolin-2-amine], the fold induction at 5 µM turned out to be 2.74.
Regarding `Cc1cccc(Nc2ccc3cc(Cl)ccc3n2)n1` [Compound 26, 6-chloro-N-(6-methylpyridin-2-yl)quinolin-2-amine], the fold induction at 5 µM was determined as 6.2.
Regarding `N#Cc1ccc(Nc2ccc3ccccc3n2)nc1` [Compound 7, 6-(Quinolin-2-ylamino)-nicotinonitrile], the fold induction at 5 µM worked out at 3.33.
For `O=C(O)c1ccnc(Nc2ccc3ccccc3n2)c1` [Compound 2, 2-(Quinolin-2-ylamino)-isonicotinic acid], the fold induction at 5 µM worked out at 3.77.
As for `O=[N+]([O-])c1ccc(Nc2ccc3ccccc3n2)nc1` [Compound 39, N-(5-nitropyridin-2-yl)quinolin-2-amine], the figure is 4.29; as for `Cc1cccc(Nc2ccc3ncccc3c2)n1` [Compound 16, (6-Methyl-pyridin-2-yl)-quinolin-6-yl-amine], 4.56; as for `COc1ccnc2cc(Nc3cc(C)ccn3)ccc12` [Compound 146, 4-methoxy-N-(4-methylpyridin-2-yl)quinolin-7-amine], 4.18.
As for `Cc1ccc(Nc2ccc3cccc(Cl)c3n2)nc1` [Compound 36, 8-chloro-N-(5-methylpyridin-2-yl)quinolin-2-amine], the figure is 3.06.
Consider `c1ccc(Oc2ccc(Nc3ccc4ccccc4n3)cc2)cc1` [Compound 102, N-(4-phenoxyphenyl)quinolin-2-amine], for which the fold induction at 5 µM is 2.06.
`Cc1cccc(Nc2ccc3ccccc3n2)n1` [Compound 17, N-(6-methylpyridin-2-yl)quinolin-2-amine]: the fold induction at 5 µM was determined as 3.66.
`FC(F)(F)c1ccc(Nc2ccc3ncccc3c2)nc1` [Compound 15, Quinolin-6-yl-(5-trifluoromethyl-pyridin-2-yl)-amine]: the fold induction at 5 µM is 2.17.
On to `COc1ccc(Nc2cnc3ccccc3c2)cc1` [Compound 123, N-(4-methoxyphenyl)quinolin-3-amine], for which the fold induction at 5 µM came out at 2.94.
For the compound `Cc1cccnc1Nc1ccc2ccccc2n1` [Compound 31, N-(3-methylpyridin-2-yl)quinolin-2-amine], the fold induction at 5 µM is 5.07.
On to `Fc1ccc(Nc2ccc3ccccc3n2)nc1` [Compound 41, N-(5-fluoropyridin-2-yl)quinolin-2-amine], for which the fold induction at 5 µM was 3.32.
Take `N#Cc1ccc(Nc2cnc3ccccc3n2)nc1` [Compound 137, 6-(quinoxalin-2-ylamino)pyridine-3-carbonitrile]: the fold induction at 5 µM worked out at 4.64.
As for `COc1cccnc1Nc1ccc2ccccc2n1` [Compound 38, N-(3-methoxypyridin-2-yl)quinolin-2-amine], the fold induction at 5 µM was found to be 5.81.
As for `Cc1cc(OC(F)(F)F)ccc1Nc1cnc2ccccc2n1` [Compound 125, N-[2-methyl-4-(trifluoromethoxy)phenyl]quinoxalin-2-amine], the fold induction at 5 µM worked out at 2.59.
As for `Cc1ccnc(Nc2ccc3ccccc3n2)c1` [Compound 3, (4-Methyl-pyridin-2-yl)-quinolin-2-yl-amine], the figure is 4.54.
